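Values below derive from 48-hour exposures of cells grown in 96-well plates, with endpoints linearly interpolated between the two concentrations bracketing the appropriate inhibition level. TGI: concentration producing complete growth inhibition.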
Columns and labels:
Experiment in all cases: NCI tumour cell line growth inhibition, 48 h
[1] = system: 786-0 renal
[2] = system: A498 renal
[3] = system: A549 NSCLC
[4] = system: ACHN renal
[5] = system: CAKI-1 renal
[6] = system: CCRF-CEM leukemia
[7] = system: COLO 205 colon
[8] = system: DLD-1 colon
[9] = system: DMS 114 small cell lung
[10] = system: DMS 273 small cell lung
[11] = system: EKVX NSCLC
[12] = system: HCC-2998 colon
[13] = system: HCT-116 colon
[14] = system: HCT-15 colon
[15] = system: HL-60(TB) leukemia
[16] = system: HOP-18 NSCLC
[17] = system: HOP-62 NSCLC
[18] = system: HOP-92 NSCLC
[19] = system: HT29 colon
[20] = system: IGROV1 ovarian
[21] = system: K-562 leukemia
[22] = system: KM12 colon
[23] = system: KM20L2 colon
[24] = system: LOX IMVI melanoma
[25] = system: LXFL 529 NSCLC
[26] = system: M14 melanoma
[27] = system: M19-MEL melanoma
[28] = system: MALME-3M melanoma
[29] = system: MOLT-4 leukemia
[30] = system: NCI-H226 lung
[31] = system: NCI-H23 lung
[32] = system: NCI-H460 lung
[33] = system: NCI-H522 lung
[34] = system: OVCAR-3 ovarian
[35] = system: OVCAR-4 ovarian
[36] = system: OVCAR-5 ovarian
[37] = system: OVCAR-8 ovarian
[38] = system: RPMI-8226 leukemia
[39] = system: RXF 393 renal
[40] = system: RXF-631 renal
[41] = system: SF-268 CNS
[42] = system: SF-295 CNS
[43] = system: SF-539 CNS
[44] = system: SK-MEL-2 melanoma
[45] = system: SK-MEL-28 melanoma
[46] = system: SK-MEL-5 melanoma
[47] = system: SK-OV-3 ovarian
[48] = system: SN12C renal
[49] = system: SNB-19 CNS
[50] = system: SNB-75 CNS
[51] = system: SNB-78 CNS
[52] = system: SR leukemia
[53] = system: SW-620 colon
[54] = system: TK-10 renal
[55] = system: U251 CNS
[56] = system: UACC-257 melanoma
[57] = system: UACC-62 melanoma
[58] = system: UO-31 renal
[59] = system: XF 498 CNS
[60] = system: MCF7 breast
[61] = system: NCI/ADR-RES ovarian
[62] = system: P388 leukemia
[63] = system: P388/ADR leukemia
[64] = system: SN12K1 renal

## C[C@]12CC[C@H](O)CC1=CC[C@@H]1C2CC[C@]2(C)C(=O)NC(=O)CC12 (some centres not stated)
[1]
  TGI: > 100 µM
[2]
  TGI: > 100 µM
[3]
  TGI: > 100 µM
[4]
  TGI: > 100 µM
[5]
  TGI: > 100 µM
[6]
  TGI: > 100 µM
[7]
  TGI: > 100 µM
[8]
  TGI: > 100 µM
[9]
  TGI: > 100 µM
[10]
  TGI: > 100 µM
[11]
  TGI: > 100 µM
[12]
  TGI: > 100 µM
[13]
  TGI: > 100 µM
[14]
  TGI: > 100 µM
[15]
  TGI: > 100 µM
[16]
  TGI: > 100 µM
[17]
  TGI: > 100 µM
[18]
  TGI: > 100 µM
[19]
  TGI: > 100 µM
[20]
  TGI: > 100 µM
[21]
  TGI: 92.1 µM
[22]
  TGI: > 100 µM
[23]
  TGI: > 100 µM
[24]
  TGI: > 100 µM
[25]
  TGI: > 100 µM
[26]
  TGI: > 100 µM
[27]
  TGI: > 100 µM
[28]
  TGI: > 100 µM
[29]
  TGI: > 100 µM
[30]
  TGI: > 100 µM
[31]
  TGI: > 100 µM
[32]
  TGI: > 100 µM
[33]
  TGI: > 100 µM
[34]
  TGI: > 100 µM
[35]
  TGI: > 100 µM
[36]
  TGI: > 100 µM
[37]
  TGI: > 100 µM
[38]
  TGI: 89.8 µM
[39]
  TGI: > 100 µM
[40]
  TGI: > 100 µM
[41]
  TGI: > 100 µM
[42]
  TGI: > 100 µM
[43]
  TGI: > 100 µM
[44]
  TGI: > 100 µM
[45]
  TGI: > 100 µM
[46]
  TGI: > 100 µM
[47]
  TGI: > 100 µM
[48]
  TGI: > 100 µM
[49]
  TGI: > 100 µM
[50]
  TGI: > 100 µM
[51]
  TGI: > 100 µM
[52]
  TGI: > 100 µM
[53]
  TGI: > 100 µM
[54]
  TGI: > 100 µM
[55]
  TGI: > 100 µM
[56]
  TGI: > 100 µM
[57]
  TGI: > 100 µM
[58]
  TGI: > 100 µM
[59]
  TGI: > 100 µM

## CN(C)CCOc1cc2c(c3ccccc13)-c1ccccc1C2O (configuration not stated)
[2]
  TGI: 29.8 µM
[3]
  TGI: 29.3 µM
[5]
  TGI: 26.7 µM
[6]
  TGI: 33.1 µM
[7]
  TGI: 27.4 µM
[8]
  TGI: 30.2 µM
[9]
  TGI: 26.2 µM
[10]
  TGI: 29 µM
[11]
  TGI: 28.2 µM
[12]
  TGI: 28.2 µM
[13]
  TGI: 26.9 µM
[14]
  TGI: 25.5 µM
[15]
  TGI: 26.6 µM
[16]
  TGI: 29.5 µM
[17]
  TGI: 29 µM
[18]
  TGI: 19.5 µM
[19]
  TGI: 27.8 µM
[20]
  TGI: 32.4 µM
[21]
  TGI: 38 µM
[22]
  TGI: 29.5 µM
[23]
  TGI: 29.9 µM
[24]
  TGI: 23.9 µM
[27]
  TGI: 30.9 µM
[28]
  TGI: 34.8 µM
[60]
  TGI: 28.3 µM
[29]
  TGI: 14.5 µM
[30]
  TGI: 29.1 µM
[31]
  TGI: 32.2 µM
[32]
  TGI: 22 µM
[33]
  TGI: 30.7 µM
[61]
  TGI: 19.5 µM
[34]
  TGI: 30.1 µM
[35]
  TGI: 32.9 µM
[36]
  TGI: 17.6 µM
[37]
  TGI: 24.7 µM
[62]
  TGI: > 100 µM
[63]
  TGI: 33.3 µM
[38]
  TGI: 31.2 µM
[39]
  TGI: 10.1 µM
[41]
  TGI: 28.3 µM
[42]
  TGI: 48.7 µM
[43]
  TGI: 27.5 µM
[44]
  TGI: 31.4 µM
[45]
  TGI: 30.2 µM
[46]
  TGI: 29.1 µM
[47]
  TGI: 30.1 µM
[48]
  TGI: 26.9 µM
[64]
  TGI: 19.5 µM
[49]
  TGI: 20.2 µM
[50]
  TGI: 24.7 µM
[51]
  TGI: 31.6 µM
[53]
  TGI: 24.8 µM
[55]
  TGI: 28.9 µM
[56]
  TGI: 29.4 µM
[57]
  TGI: 31.5 µM
[58]
  TGI: 25.2 µM
[59]
  TGI: 25.7 µM

## CCCCSCC(NC(=O)/C=C/c1c(C)[nH]c(=O)[nH]c1=O)C(=O)OC (configuration not stated)
[2]
  TGI: 224 µM
[3]
  TGI: 401 µM
[5]
  TGI: 155 µM
[6]
  TGI: 245 µM
[7]
  TGI: 112 µM
[8]
  TGI: 275 µM
[9]
  TGI: 271 µM
[10]
  TGI: 264 µM
[11]
  TGI: 188 µM
[12]
  TGI: 132 µM
[13]
  TGI: 246 µM
[14]
  TGI: > 450 µM
[15]
  TGI: 206 µM
[16]
  TGI: 330 µM
[17]
  TGI: 252 µM
[18]
  TGI: 189 µM
[19]
  TGI: 357 µM
[20]
  TGI: 316 µM
[21]
  TGI: 367 µM
[22]
  TGI: 157 µM
[23]
  TGI: 355 µM
[24]
  TGI: > 450 µM
[27]
  TGI: 191 µM
[28]
  TGI: 65.7 µM
[60]
  TGI: 114 µM
[29]
  TGI: 205 µM
[30]
  TGI: 291 µM
[31]
  TGI: 339 µM
[32]
  TGI: 177 µM
[33]
  TGI: 132 µM
[61]
  TGI: > 450 µM
[34]
  TGI: 77.2 µM
[35]
  TGI: > 89 µM
[36]
  TGI: 300 µM
[37]
  TGI: 246 µM
[62]
  TGI: 137 µM
[63]
  TGI: > 450 µM
[38]
  TGI: 267 µM
[39]
  TGI: 267 µM
[41]
  TGI: 341 µM
[42]
  TGI: 272 µM
[43]
  TGI: 254 µM
[44]
  TGI: 121 µM
[45]
  TGI: 317 µM
[46]
  TGI: 176 µM
[47]
  TGI: 226 µM
[48]
  TGI: 269 µM
[64]
  TGI: 173 µM
[49]
  TGI: 204 µM
[50]
  TGI: 241 µM
[51]
  TGI: 303 µM
[53]
  TGI: 346 µM
[55]
  TGI: 147 µM
[56]
  TGI: 235 µM
[57]
  TGI: 198 µM
[58]
  TGI: 243 µM

From PubChem BioAssay (NCI)
